# From paper PMC10582773, “A clathrin-related protein FaRRP1/SCD2 integrates ABA trafficking and signaling to regulate strawberry fruit ripening” (The Journal of Biological Chemistry, 2023)
# Columns and labels:
# [1] = target: FaABAR-His recombinant fusion protein (magnesium chelatase H subunit) (Fragaria x ananassa (strawberry)); assay: ITC; 200 uM FaRRP1 dropped into 20 uM FaABAR; ITC200 (MicroCal), 25 C; ITC buffer 20 mM Na2HPO4, 20 mM NaH2PO4, 300 mM NaCl, 20 mM MgCl2, pH 7.4; 20 injections
# [2] = target: FaRRP1-His/MBP recombinant fusion protein (strawberry ripening-regulated protein 1) (Fragaria x ananassa (strawberry)); assay: ITC; 200 uM FaPYL2 dropped into 20 uM FaRRP1; ITC200 (MicroCal), 25 C; ITC buffer 20 mM Na2HPO4, 20 mM NaH2PO4, 300 mM NaCl, 20 mM MgCl2, pH 7.4; 20 injections
# [3] = target: FaRRP1-His/MBP fusion protein (Fragaria × ananassa, UniProt K9LRD7); assay: ITC binding of ABA to FaRRP1
# Source text: (§1) The expression and purification of the recombinant proteins FaRRP1, FaPYL2, and FaABAR were done by a prokaryotic (E. coli) expression system. The cDNA encoding the FaRRP1, FaPYL2, and FaABAR was synthesized using the aforementioned method by PCR amplification using the primers listed in Table S1. The recombinant plasmids of pET-28a-FaPYL2-His, pMAL-C5X-FaRRP1-His/MBP, pGEX4T-1-FaRRP1-GST, pET-28a-FaABAR-His were constructed. After positive recombinants were identified by double-digesting and sequencing, the E. coli strain BL21 (DE3) cells with the recombinant plasmid were grown in 500 ml LB medium containing different antibiotics at 37 °C. On A600 at 0.6 to 0.7, 0.5 mM IPTG was added to inducibly express the fusion proteins overnight at 16 °C for 12 h. The cultures were harvested and suspended with 20 ml binding buffer (20 mM Na2HPO4, 20 mM NaH2PO4, 300 mM NaCl, 20 mM MgCl2, 10 mM imidazole, pH 7.4), then lysed by sonication in a Misonix Sonifier at 4 °C; finally, the supernatants were loaded onto BeaverBeads IDA- Ni^2+ (Beaver) columns and mixed gently by shaking at 4 °C for 60 min. […]
# (§2) The purified protein was concentrated using an Amicon Ultra-4 centrifugal 3-kDa filter (Millipore) at 3000g for 20 min in a swing bucket rotor (Sigma). […] The binding reaction between fusion protein to ABA was detected by ITC. […]
# [4] = target: FaRRP1–FaABAR protein complexes (Fragaria x ananassa, UniProt C6KF71+K9LRD7); assay: ITC binding of ABA to FaRRP1–FaABAR complex; details: 0.4 mM S-(+)-ABA titrated into 20 μM complex, pH 7.4, 25 °C, exothermic
# Protocol: (§3) Whether FaRRP1 affects the binding activity of FaPYL2 and FaABAR to ABA is unclear. For this, FaRRP1-His/MBP, FaPYL2-His, and FaABAR-His were purified and dialyzed into the same buffer (ITC Buffer) (20 mM Na2HPO4, 20 mM NaH2PO4, 300 mM NaCl, 20 mM MgCl2 pH 7.4). Then, the molar concentrations of FaRRP1-FaPYL2 and FaRRP1-FaABAR complexes were mixed into the same ratio and placed at 4 °C for 30 min. Finally, 1-fold protein peptide and 20-fold S- (+)-ABA were used for ITC assays (Fig. 5, D and H).
# (§4) The purified protein was concentrated using an Amicon Ultra-4 centrifugal 3-kDa filter (Millipore) at 3000g for 20 min in a swing bucket rotor (Sigma). The protein was then desalted for buffer exchange using a HiTrap desalting column (GE Healthcare). The HiTrap desalting column was filled with ITC buffer (20 mM Na2HPO4, 20 mM NaH2PO4, 300 mM NaCl, 20 mM MgCl2, pH 7.4) to remove ethanol completely and equilibrate the column. The final concentration of the FaRRP1-His/MBP, FaPYL2-His, and FaABAR-His fusion protein was adjusted to 20 μM. The binding reaction between fusion protein to ABA was detected by ITC. To ensure the univariate of the experiment, an ITC buffer was used to prepare an ABA solution with 20 times protein concentration to ensure the matching of buffer environment between the two. The ITC analysis used 20-μM fusion protein and 400-μM ABA in an ITC200 calorimeter (MicroCal). […]
# [5] = target: FaPYL2-His fusion protein; assay: ITC binding of ABA to FaPYL2; set-up: species or system Fragaria × ananassa; details: 0.4 mM S-(+)-ABA titrated into 20 μM protein, pH 7.4, 25 °C, endothermic, saturation curve
# Source text: as §1, §2
# [6] = target: FaRRP1–FaPYL2 protein complexes; assay: ITC binding of ABA to FaRRP1–FaPYL2 complex; set-up: species or system Fragaria × ananassa; details: 0.4 mM S-(+)-ABA titrated into 20 μM complex, pH 7.4, 25 °C, endothermic
# Protocol: as §3, §4
# [7] = system: clathrin-mediated vesicle transport genes; assay: RT-qPCR of clathrin-mediated vesicle transport genes in ABA-incubated fruit discs; type: cell-based, Fragaria × ananassa; details: 100 μM ABA, white-stage fruit discs, vs control
# Protocol: In vitro treatments were performed on fruits in the white stage using 100 μM ABA, and ABA-free buffer incubation was used as the control. The incubation was done as described by Song et al. ([77]). After a 2-h incubation followed by washing with double-distilled water, the discs were frozen in liquid nitrogen and kept at −80 °C until use. Samples are collected once at 0 h, 1 h, and 2 h. The experiment was performed with three replicates.
# Total RNA was isolated from the fruit using the aforementioned method. The first-strand cDNA was used as the template for RT-qPCR, which was performed using the Trans Start Top UreenqPCR Super Mix Kit (TransGen Biotech) on the Light Cycler 96 real-time PCR system, with cDNA under different treatments as the template and strawberry Actin as the internal reference gene. The reaction procedures were as follows: predenaturation at 94 °C for 30 s, followed by 40 cycles of denaturation at 94 °C for 5 s, annealing at 60 °C for 15 s, and extension at 72 °C for 10 s. The experiment was duplicated three times independently. The Actin of the standard sample and the cDNA of the sample to be tested were repeated three times. Relative expression values were calculated by the 2^−ΔΔCt method, and SPSS22.0 software (https://www.spss.com) was used to analyze the experimental data.
# [8] = system: FaRRP1-mediated endocytosis in root cells; assay: Endocytosis experiment under ABA treatment (FM4-64 staining of root cells); type: cell-based, Arabidopsis; details: 0.1 μM ABA 48 h, 10-days-old seedlings, 5 μM FM4-64 10 min; FaRRP1-OE line compared with WT
# Protocol: The 10-days-old FaRRP1 OE and WT Arabidopsis seedlings growing under the normal condition were collected and soaked into the equilibrium solution [1/2 MS salt (pH=5.70), 1% sugar (w/v)] for 30 min. Then, the seedlings were treated with 0.1 μM ABA. After 48 h later, these seedlings were stained with 5 μM FM4-64 (Invitrogen) dye for 10 min, washed with equilibrium solution for 3 times, and root cells were observed under a confocal laser scanning microscope (Zeiss LSM 710 META). The experiment was repeated three times.
# [9] = target: T1, FaABAR-His fusion protein (Fragaria × ananassa, UniProt C6KF71); assay: ITC binding of ABA to FaABAR
# T1 sequence (C6KF71 1-1381): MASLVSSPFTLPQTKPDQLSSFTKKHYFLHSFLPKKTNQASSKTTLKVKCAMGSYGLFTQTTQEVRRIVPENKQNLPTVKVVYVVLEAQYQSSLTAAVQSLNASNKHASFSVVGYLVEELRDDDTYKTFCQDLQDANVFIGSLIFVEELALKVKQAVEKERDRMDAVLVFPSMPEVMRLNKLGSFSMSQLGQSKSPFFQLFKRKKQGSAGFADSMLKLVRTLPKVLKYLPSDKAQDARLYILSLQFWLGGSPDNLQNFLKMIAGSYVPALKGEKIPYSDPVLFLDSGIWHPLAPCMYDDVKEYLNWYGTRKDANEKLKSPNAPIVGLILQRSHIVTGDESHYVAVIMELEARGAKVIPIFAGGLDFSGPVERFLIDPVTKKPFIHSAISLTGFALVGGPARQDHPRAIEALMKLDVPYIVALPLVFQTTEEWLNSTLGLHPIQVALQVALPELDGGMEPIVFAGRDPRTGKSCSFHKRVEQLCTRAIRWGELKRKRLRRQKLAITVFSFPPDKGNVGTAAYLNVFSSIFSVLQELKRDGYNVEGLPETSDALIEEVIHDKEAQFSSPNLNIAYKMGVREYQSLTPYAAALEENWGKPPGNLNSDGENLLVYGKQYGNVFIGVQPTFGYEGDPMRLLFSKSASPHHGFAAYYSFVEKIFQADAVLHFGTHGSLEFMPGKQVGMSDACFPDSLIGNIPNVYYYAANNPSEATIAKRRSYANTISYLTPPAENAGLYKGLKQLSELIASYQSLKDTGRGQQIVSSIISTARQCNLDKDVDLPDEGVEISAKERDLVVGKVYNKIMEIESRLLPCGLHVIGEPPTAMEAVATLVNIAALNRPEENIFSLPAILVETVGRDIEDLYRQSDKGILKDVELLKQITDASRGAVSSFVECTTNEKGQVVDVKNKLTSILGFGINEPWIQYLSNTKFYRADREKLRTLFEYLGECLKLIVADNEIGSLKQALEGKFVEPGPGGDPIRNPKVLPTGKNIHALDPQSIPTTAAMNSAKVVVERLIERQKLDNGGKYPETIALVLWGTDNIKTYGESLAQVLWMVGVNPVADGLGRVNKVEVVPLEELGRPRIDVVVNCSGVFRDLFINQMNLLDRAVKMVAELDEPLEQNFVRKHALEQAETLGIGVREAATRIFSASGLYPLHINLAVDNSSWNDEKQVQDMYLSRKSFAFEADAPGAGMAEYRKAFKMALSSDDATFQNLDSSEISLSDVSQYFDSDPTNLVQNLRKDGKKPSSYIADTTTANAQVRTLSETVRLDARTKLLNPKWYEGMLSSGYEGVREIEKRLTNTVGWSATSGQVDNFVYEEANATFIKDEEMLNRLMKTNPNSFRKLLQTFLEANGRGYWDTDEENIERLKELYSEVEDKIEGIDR
# Source text: as §1, §2
# [10] = 2 h, decreased in contrast to 1 h treatment
# Sequence of FaRRP1-His/MBP fusion protein (K9LRD7 1-566): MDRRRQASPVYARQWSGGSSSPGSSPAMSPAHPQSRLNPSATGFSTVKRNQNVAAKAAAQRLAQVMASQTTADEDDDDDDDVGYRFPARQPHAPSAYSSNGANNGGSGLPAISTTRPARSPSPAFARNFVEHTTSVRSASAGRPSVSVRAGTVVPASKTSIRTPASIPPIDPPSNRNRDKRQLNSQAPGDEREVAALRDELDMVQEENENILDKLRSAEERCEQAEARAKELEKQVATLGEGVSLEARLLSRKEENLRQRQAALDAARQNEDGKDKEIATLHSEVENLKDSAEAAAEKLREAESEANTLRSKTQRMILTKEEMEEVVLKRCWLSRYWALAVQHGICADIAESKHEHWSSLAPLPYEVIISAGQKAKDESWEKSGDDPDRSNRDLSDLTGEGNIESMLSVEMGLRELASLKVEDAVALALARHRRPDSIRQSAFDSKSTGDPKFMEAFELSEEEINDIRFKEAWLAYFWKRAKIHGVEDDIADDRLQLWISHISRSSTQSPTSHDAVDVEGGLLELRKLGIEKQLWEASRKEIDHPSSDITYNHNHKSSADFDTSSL
# Sequence of FaRRP1–FaABAR protein complexes (K9LRD7 1-566, one chain of several): as the sequence (K9LRD7 1-566) above
# Sequence of FaRRP1-His/MBP recombinant fusion protein (strawberry ripening-regulated protein 1) (Fragaria x ananassa (strawberry)) (K9LRD7 entry or part of it): as the sequence (K9LRD7 1-566) above
compound,measurement,setting,value
FaRRP1-His/MBP recombinant fusion protein (strawberry ripening-regulated protein 1) (natural protein),Kd,[1],168 µM
FaPYL2-His recombinant fusion protein (natural protein),Kd,[2],75.6 µM
"CC1=CC(=O)CC(C)(C)[C@@]1(O)/C=C/C(C)=C\C(=O)O [ABA, Abscisic acid]",N (stoichiometry) ABA-FaRRP1,"[3]; ITC fit, 0.4 mM ABA into 20 μM FaRRP1",0.41 Sites
same,Kd,"[3]; ITC, 0.4 mM S-(+)-ABA titrated into 20 μM protein, pH 7.4, 25 °C, exothermic, saturation curve",140 µM
same,Kd,[4],87.7 µM
same,Kd,[5],102 µM
same,Kd,[6],30.6 µM
same,expression of FaAP1,[7]; 1 h,significantly increased
same,expression of FaAP2,[7]; 1 h,significantly increased
same,expression of FaCHC1,[7]; 1 h,not changed
same,expression of FaCHC2,[7]; 1 h,significantly increased
same,expression of FaCLC1,[7]; 1 h,significantly increased
same,expression of FaCLC2,[7]; 1 h,decreased considerably
same,expression of FaSCD1,[7]; 1 h,significantly increased
same,expression of FaSCD2,[7]; 1 h,significantly increased
same,expression of FaAP1,[7]; 2 h,significantly decreased
same,expression of FaCHC1,[7]; 2 h,quite upregulated
same,expression of FaCHC2,[7]; 2 h,significantly decreased
same,expression of FaCLC2,[7]; 2 h,quite upregulated
same,expression of FaSCD1,[7]; 2 h,significantly decreased
same,expression of FaAP2,[7]; [10],significantly increased
same,expression of FaSCD2,[7]; [10],significantly increased
same,degree of PM internalization (FM4-64–labeled fluorescent signal),[8],promote the degree of PM internalization
same,N (stoichiometry) ABA-FaABAR,"[9]; ITC fit, 0.4 mM ABA into 20 μM FaABAR",8.60 Sites
same,Kd,"[9]; ITC, 0.4 mM S-(+)-ABA titrated into 20 μM protein, pH 7.4, 25 °C, endothermic, could not reach saturation curve",258 µM
